Results as given in US10206898B2, “Compositions and methods for treating or preventing obesity in a subject in need thereof” (Amarin Pharmaceuticals Ireland Limited, priority 2013, dated 2019).

Tested on: patients with fasting triglyceride levels ≥200 mg/dl and <500 mg/dl despite statin therapy
Assay: 12-week placebo-controlled, randomized, double-blind study: lipoprotein particle concentrations
Assay type: in vivo, human
Method: A multi-center, placebo-controlled, randomized, double-blind, 12-week study was performed to evaluate the efficacy and safety of >96% E-EPA in patients with fasting triglyceride levels ≥200 mg/dl and <500 mg/dl despite statin therapy (the mean of two qualifying entry values needed to be ≥185 mg/dl and at least one of the values needed to be ≥200 mg/dl). The primary objective of the study was to determine the efficacy of >96% E-EPA 2 g daily and 4 g daily, compared to placebo, in lowering fasting TG levels in patients with high risk for cardiovascular disease and with fasting TG levels ≥200 mg/dl and <500 mg/dl, despite treatment to LDL-C goal on statin therapy. The population for this study was men and women >18 years of age with a body mass index ≤45 kg/m^2 with fasting TG levels greater than or equal to 200 mg/dl and less than 500 mg/dl and on a stable does of statin therapy (with or without ezetimibe). The statin was atorvostatin, rosuvastatin or simvastatin. The dose of statin must have been stable for ≥4 weeks prior to the LDL-C/TG baseline qualifying measurement for randomization. The statin dose was optimized such that the patients are at their LDL-C goal at the LDL-C/TG baseline qualifying measurements. The same statin at the same dose was continued until the study ended. Approximately 702 patients were randomized at approximately 80 centers in the U.S. The study was a 18- to 20-week, Phase 3, multi-center study consisting of 2 study periods: (1) A 6- to 8-week screening period that included a diet and lifestyle stabilization, a non-statin lipid-altering treatment washout, and an LDL-C and TG qualifying period and (2) A 12-week, double-blind, randomized, placebo-controlled treatment period. After confirmation of qualifying fasting LDL-C and TG values, eligible patients entered a 12-week, randomized, double-blind treatment period. At Visit 4 (Week 0), patients were randomly assigned to 1 of the following treatment groups: • >96% E-EPA 2 g daily, • >96% E-EPA 4 g daily, or • Placebo. Eligible patients were randomly assigned at Visit 4 (Week 0) to receive orally >96% E-EPA 2 g daily, >96% E-EPA 4 g daily, or placebo. >96% E-EPA was provided in 1 g liquid-filled, oblong, gelatin capsules. The matching placebo capsule was filled with light liquid paraffin and contained 0 g of >96% E-EPA. >96% E-EPA capsules were to be taken with food (i.e. with or at the end of a meal). […]

## CC/C=C\C/C=C\C/C=C\C/C=C\C/C=C\CCCC(=O)OCC [Ethyl Eicosapentaenoate, ethyl eicosapentaenoate]
4 g per day, stated as a reduction (P<0.0001)
  reduction of median concentrations of total HDL over baseline when adjusted for placebo: 7.4%
4 g per day, stated as a reduction (P<0.01)
  reduction of median concentrations of total LDL over baseline when adjusted for placebo: 7.7%
4 g/day, 12 weeks, statin-treated patients, median total HDL particle concentration
  HDL % Change (placebo-adjusted, relative to baseline): −7.4%
4 g/day, 12 weeks, statin-treated patients, median total LDL particle concentration
  LDL % Change (placebo-adjusted, relative to baseline): −7.7%
